Source: patent publication US10065990B2, “Cyclic peptide compound, and preparation method, pharmaceutical composition and use thereof” (HANGZHOU GUANYU BIO-MEDICAL CO., LTD, priority 2013, dated 2018)
Like-named read-outs stand apart in the source and are kept apart here.

Legend:
[1] = target: HDAC1 (Homo sapiens, UniProt Q13547); assay: HDAC biochemical activity measurement (fluorescent substrate deacetylation);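 further: fluorogenic acetyl-lysine substrate (20 µM) deacetylated by HDAC1, then developer releases fluorophore read at 360 nm excitation and 460 nm emission, inhibitor incubated 30 min at 37 °C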
[2] = system: A549 (human lung cancer cells); assay: MTT cancer cell growth inhibition; type: cell-based; conditions: MTT, 72 hours incubation, read-out: GI50 A54
Procedure, shortened: (§1)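 Cells seeded at 1500/well in DMEM or RPMI 1640 with 10% FBS, incubated overnight, then exposed to compound at 10^−5 to 10^−10 M final in triplicate for 72 h at 37° C, 5% CO2. MTT added for 4 h, formazan dissolved in DMSO, absorbance read at 570 nm; GI50 derived from viability.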

[3] = system: BGC-823 (human gastric cancer cells); assay: MTT cancer cell growth inhibition; type: cell-based; conditions: MTT, 72 hours incubation, read-out: GI50 BG
Procedure, shortened: as §1

[4] = system: Bel-7402 (human hepatoma cells); assay: MTT cancer cell growth inhibition; type: cell-based; conditions: MTT, 72 hours incubation, Bel-7402 cells, read-out: GI50 Bel-7402
Procedure, shortened: as §1

[5] = system: DU145 (human prostate cancer cells); assay: MTT cancer cell growth inhibition; type: cell-based; conditions: MTT, 72 hours incubation, read-out: GI50 Du1
Procedure, shortened: as §1

[6] = system: H1975 (non-small cell lung adenocarcinoma); assay: MTT cancer cell growth inhibition; type: cell-based; conditions: MTT, 72 hours incubation, H1975 cells, read-out: GI50 H1975
Procedure, shortened: as §1

[7] = system: HCC827 (human non-small cell lung cancer cells); assay: MTT cancer cell growth inhibition; type: cell-based; conditions: MTT, 72 hours incubation, HCC827 cells, read-out: GI50 HCC827
Procedure, shortened: as §1

[8] = system: HT1080 (human fibrosarcoma cells); assay: MTT cancer cell growth inhibition; type: cell-based; conditions: MTT, 72 hours incubation, read-out: GI50 HT1
Procedure, shortened: as §1

[9] = system: Hela (human cervical cancer cells); assay: MTT cancer cell growth inhibition; type: cell-based; conditions: MTT, 72 hours incubation, read-out: GI50 Hela
Procedure, shortened: as §1

[10] = system: Huh-7 (human hepatoma cells); assay: MTT cancer cell growth inhibition; type: cell-based; conditions: MTT, 72 hours incubation, Huh-7 cells, read-out: GI50 Huh-7
Procedure, shortened: as §1

[11] = system: K562 (human leukemia cells); assay: MTT cancer cell growth inhibition; type: cell-based; conditions: MTT, 72 hours incubation, K562 cells, read-out: GI50 K562
Procedure, shortened: as §1

[12] = system: KBM-5 (human chronic myelogenous leukemia); assay: MTT cancer cell growth inhibition; type: cell-based; conditions: MTT, 72 hours incubation, KBM-5 cells, read-out: GI50 KBM-5
Procedure, shortened: as §1

[13] = system: KBM5-T315I (human chronic myelogenous leukemia); assay: MTT cancer cell growth inhibition; type: cell-based; conditions: MTT, 72 hours incubation, KBM5-T315I cells, read-out: GI50 KBM5-T315I
Procedure, shortened: as §1

[14] = system: MCF-7 (human breast cancer cells); assay: MTT cancer cell growth inhibition; type: cell-based; conditions: 72 hours incubation, read-out: GI50 MCF
Procedure, shortened: as §1

[15] = system: MDA-MB-231 (breast cancer cells); assay: MTT cancer cell growth inhibition; type: cell-based
Procedure, shortened: as §1

[16] = system: MOLT-4 (human acute lymphoblastic leukemia cells); assay: MTT cancer cell growth inhibition; type: cell-based; conditions: MTT, 72 hours incubation, read-out: GI50 Mol
Procedure, shortened: as §1

[17] = system: N-87 (human gastric cancer cells); assay: MTT cancer cell growth inhibition; type: cell-based; conditions: MTT, 72 hours incubation, N-87 cells, read-out: GI50 N-87
Procedure, shortened: as §1

[18] = system: PANC-1 (Pac-1, human pancreatic cancer cells); assay: MTT cancer cell growth inhibition; type: cell-based; conditions: MTT, 72 hours incubation, read-out: GI50 PAN
Procedure, shortened: as §1

[19] = system: SGC-7901 (human gastric cancer cells); assay: MTT cancer cell growth inhibition; type: cell-based; conditions: MTT, 72 hours incubation, SGC-7901 cells, read-out: GI50 SGC-7901
Procedure, shortened: as §1

[20] = system: U937 (human leukemia cells); assay: MTT cancer cell growth inhibition; type: cell-based; conditions: MTT, 72 hours incubation, read-out: GI50 U93
Procedure, shortened: as §1

[21] = system: lncap (prostate cancer cells); assay: MTT cancer cell growth inhibition; type: cell-based; conditions: MTT, 72 hours incubation, read-out: GI50 lnca
Procedure, shortened: as §1

[22] = target: T1, HDAC7 (Homo sapiens, UniProt Q8WUI4); assay: HDAC biochemical activity measurement (fluorescent substrate deacetylation);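 further: fluorogenic deacetylation assay using acetyl-lysine substrate at 20 µM, enzyme and compound incubated 30 min at 37 °C, then developer added, fluorescence read at 360/460 nm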; conditions: HDAC7; 37° C. 30 minutes
T1 sequence (Q8WUI4 1-952): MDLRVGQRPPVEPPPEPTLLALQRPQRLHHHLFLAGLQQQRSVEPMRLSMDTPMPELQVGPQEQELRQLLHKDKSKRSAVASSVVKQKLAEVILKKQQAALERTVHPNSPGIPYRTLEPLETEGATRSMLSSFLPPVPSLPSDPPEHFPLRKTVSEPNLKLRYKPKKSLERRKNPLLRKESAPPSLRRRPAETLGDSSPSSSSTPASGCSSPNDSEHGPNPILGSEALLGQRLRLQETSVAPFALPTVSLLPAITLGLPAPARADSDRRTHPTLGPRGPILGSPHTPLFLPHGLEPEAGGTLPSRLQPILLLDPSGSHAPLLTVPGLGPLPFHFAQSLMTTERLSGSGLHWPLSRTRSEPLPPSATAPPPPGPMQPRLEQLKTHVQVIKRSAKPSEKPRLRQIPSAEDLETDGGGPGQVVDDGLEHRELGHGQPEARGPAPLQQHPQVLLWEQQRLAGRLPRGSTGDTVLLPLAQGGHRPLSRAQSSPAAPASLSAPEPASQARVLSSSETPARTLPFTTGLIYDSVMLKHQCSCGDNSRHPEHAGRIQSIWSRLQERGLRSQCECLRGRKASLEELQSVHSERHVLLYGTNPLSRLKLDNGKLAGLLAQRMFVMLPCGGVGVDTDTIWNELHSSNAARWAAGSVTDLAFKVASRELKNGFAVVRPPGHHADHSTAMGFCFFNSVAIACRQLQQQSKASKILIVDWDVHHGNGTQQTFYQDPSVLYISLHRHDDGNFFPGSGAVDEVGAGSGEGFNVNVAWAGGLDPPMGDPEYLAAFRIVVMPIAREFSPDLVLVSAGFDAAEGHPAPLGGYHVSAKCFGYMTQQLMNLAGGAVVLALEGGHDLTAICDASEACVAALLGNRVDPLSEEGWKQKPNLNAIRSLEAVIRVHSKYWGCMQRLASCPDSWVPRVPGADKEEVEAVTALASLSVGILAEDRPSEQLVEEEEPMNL

[23] = Homo sapiens, MDA-MB-231, 72 h, read-out: GI50 MDA-MB-231, MTT, 72 hours incubation, MDA-MB-231 cells

Chain of HDAC1 (Q13547 whole entry, species assumed): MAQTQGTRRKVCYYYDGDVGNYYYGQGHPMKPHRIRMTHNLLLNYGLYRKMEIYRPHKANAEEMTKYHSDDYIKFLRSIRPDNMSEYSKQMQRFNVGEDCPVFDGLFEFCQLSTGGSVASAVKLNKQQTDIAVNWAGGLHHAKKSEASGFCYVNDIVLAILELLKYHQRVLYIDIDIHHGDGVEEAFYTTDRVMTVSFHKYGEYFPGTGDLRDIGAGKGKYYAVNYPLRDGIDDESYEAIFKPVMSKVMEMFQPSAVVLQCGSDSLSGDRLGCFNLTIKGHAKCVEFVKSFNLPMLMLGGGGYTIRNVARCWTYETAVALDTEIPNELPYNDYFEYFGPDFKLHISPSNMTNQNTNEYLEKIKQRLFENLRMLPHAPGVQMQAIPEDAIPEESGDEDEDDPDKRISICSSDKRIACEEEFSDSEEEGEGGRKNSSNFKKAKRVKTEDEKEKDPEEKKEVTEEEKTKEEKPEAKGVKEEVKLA

`C/C=C1\NC(=O)c2cc(F)cc(n2)CNC(=O)C[C@@H](/C=C/CCSC(C)=O)OC(=O)[C@H](C)NC1=O` [Compound 64] showed an IC50 ([1]; Table 3, column C, read-out: IC50 HDAC1, C (six-membered ring with substituents)) of 24 nM, a GI50 ([2]; Homo sapiens, A549, 72 h) of 30 nM and a GI50 ([3]; Homo sapiens, BGC-823, 72 h) of 30 nM. For the same compound, the GI50 ([4]; Homo sapiens, Bel-7402, 72 h) was 51 nM, the GI50 ([5]; Homo sapiens, DU-145, 72 h) was 20 nM and the GI50 ([6]; Homo sapiens, NCI-H1975, 72 h) was 38 nM. The GI50 ([7]; Homo sapiens, HCC827, 72 h) was 51 nM, the GI50 ([8]; Homo sapiens, HT-1080, 72 h) was 50 nM and the GI50 ([9]; Homo sapiens, HeLa, 72 h) was 80 nM. The GI50 ([10]; Homo sapiens, Huh-7, 72 h) was 46 nM, the GI50 ([11]; Homo sapiens, K562, 72 h) was 26 nM and the GI50 ([12]; Homo sapiens, KBM5, 72 h) was 82 nM. For the same compound, the GI50 ([13]; Homo sapiens, 72 h) was 22 nM, the GI50 ([14]; Homo sapiens, MCF7, 72 h) was 20 nM and the GI50 [15, 23] was 46 nM. The GI50 ([16]; Homo sapiens, MOLT-4, 72 h) was 40 nM, the GI50 ([17]; Homo sapiens, 72 h) was 30 nM and the GI50 ([18]; Homo sapiens, PANC-1, 72 h) was 50 nM. For the same compound, the GI50 ([19]; Homo sapiens, SGC-7901, 72 h) was 35 nM, the GI50 ([20]; Homo sapiens, U-937, 72 h) was 30 nM and the GI50 ([21]; Homo sapiens, LNCaP, 72 h) was 40 nM.
`C/C=C1\NC(=O)c2ccc(SC)c(n2)CNC(=O)C[C@@H](/C=C/CCSC(C)=O)OC(=O)[C@H](C)NC1=O` [Compound 215] was tested, and the IC50 ([1]; HDAC1, 37° C. 30 minutes, read-out: IC50 HDAC1) was 66 nM, the “IC50 HDAC7” value [22] was “no activity” and the GI50 ([2]; A549 cells) was 50 nM. The GI50 ([3]; BGC-823 cells) was 40 nM, the GI50 [4] was 19 nM and the GI50 ([5]; DU145 cells) was 30 nM. It also gave a GI50 [6] of 37 nM, a GI50 [7] of 15 nM and a GI50 ([8]; HT1080 cells) of 20 nM. For the same compound, the GI50 ([9]; Hela cells) was 20 nM, the GI50 [10] was 65 nM and the GI50 [11] was 48 nM. It also gave a GI50 [12] of 25 nM, a GI50 [13] of 42 nM and a GI50 ([14]; MCF-7 cells) of 30 nM. It also gave a GI50 ([15]; read-out: GI50 MDA-MB-231, MTT, 72 hours incubation, MDA-MB-231 cells) of 47 nM, a GI50 ([16]; MOLT-4 cells) of 70 nM and a GI50 [17] of 17 nM. It also gave a GI50 ([18]; PANC-1 cells) of 40 nM, a GI50 [19] of 48 nM and a GI50 ([20]; U937 cells) of 90 nM. It also gave a GI50 ([21]; lncap cells) of 100 nM.
In the case of `C/C=C1\NC(=O)c2cc(SC)cc(n2)CNC(=O)C[C@@H](/C=C/CCSC(C)=O)OC(=O)[C@H](CCCCNC(=O)OCC2c3ccccc3-c3ccccc32)NC1=O` [Compound 196], the “IC50 HDAC7” value [22] is reported as “no activity”, the GI50 ([2]; Homo sapiens, A549, 72 h, A549 cells) is reported as 20 nM and the GI50 ([3]; Homo sapiens, BGC-823, 72 h, BGC-823 cells) is reported as 50 nM. For the same compound, the GI50 ([4]; Homo sapiens, Bel-7402, 72 h) was 89 nM, the GI50 ([5]; Homo sapiens, DU-145, 72 h, DU145 cells) was 130 nM and the GI50 ([6]; Homo sapiens, NCI-H1975, 72 h) was 62 nM. For the same compound, the GI50 ([7]; Homo sapiens, HCC827, 72 h) was 64 nM, the GI50 ([8]; Homo sapiens, HT-1080, 72 h, HT1080 cells) was 70 nM and the GI50 ([9]; Homo sapiens, HeLa, 72 h, Hela cells) was 80 nM. It also gave a GI50 ([10]; Homo sapiens, Huh-7, 72 h) of 23 nM, a GI50 ([11]; Homo sapiens, K562, 72 h) of 58 nM and a GI50 ([12]; Homo sapiens, KBM5, 72 h) of 28 nM. For the same compound, the GI50 ([13]; Homo sapiens, 72 h) was 93 nM, the GI50 ([14]; Homo sapiens, MCF7, 72 h, MCF-7 cells) was 60 nM and the GI50 [15, 23] was 85 nM. It also gave a GI50 ([16]; Homo sapiens, MOLT-4, 72 h, MOLT-4 cells) of 30 nM, a GI50 ([17]; Homo sapiens, 72 h) of 56 nM and a GI50 ([18]; Homo sapiens, PANC-1, 72 h, PANC-1 cells) of 60 nM. The GI50 ([19]; Homo sapiens, SGC-7901, 72 h) was 45 nM, the GI50 ([20]; Homo sapiens, U-937, 72 h, U937 cells) was 60 nM and the GI50 ([21]; Homo sapiens, LNCaP, 72 h, lncap cells) was 60 nM.
